Test results reported in patent US9919023B2, “Anti-androgen peptides and uses thereof in cancer therapy” (Cancer Research Technology Limited, priority 2007, dated 2018).
Peptide text beside a SMILES is read from it.

Assays:
[1] = system: Cyclin D1; assay: Androgen-induced cyclin D1 expression, western blot in MCF-7 and LNCaP cells; assay type: cell-based, human
Method: Inhibition of androgen-induced cyclin D1 expression by AR-derived Src-SH3 binder peptide (SEQ.ID NO.1). Quiescent MCF-7 and LNCaP cells were left untreated or treated for 8 hrs with 10 nM R1881 alone or in the presence of 5 μM PI3-kinase inhibitor LY294,002 or 1 nM AR-derived SH3 binder or the shuffled sequence of peptide SEQ.ID NO.1 (SEQ.ID. NO.7). Protein from cell lysates were resolved on SDS-PAGE, then transferred to nitrocellulose filters. […] Lanes 1: unstimulated cells; lanes 2: R1881 treated cells; lanes 3: cells treated with R1881 in the presence of LY294,002 (LY); lanes 4: cells treated with R1881 in the presence of AR-derived (SH3-binder) peptide (SH3); lane 5: cells treated with R1881 in the presence of the shuffled sequence of peptide SEQ.ID NO.1 (Ss).
To verify this possibility, SH3 binder peptide (SEQ.ID NO.1) is added to MCF-7 and LNCaP cells stimulated with the androgen. MCF-7 and LNCaP cells are routinely grown as described above. Cells are then kept for at least 4 days in red phenol-free medium supplemented as described above and added with dextran-coated charcoal treated fetal calf serum to minimize steroid concentration.

[2] = system: Cyclin D1; assay: Estrogen-induced cyclin D1 expression, western blot in MCF-7 and LNCaP cells; assay type: cell-based, human
Method: Quiescent MCF-7 and LNCaP cells were left untreated or treated for 8 hrs with 10 nM 17β estradiol alone or in the presence of 5 μM PI3-Kinase inhibitor LY294,002 or 1 nM of the SH3 binder or the shuffled sequence of peptide SEQ.ID NO.1 (SEQ.ID NO.7). Protein from cell lysates were resolved on SDS-PAGE, then transferred to nitrocellulose filters. […] Lanes 1: unstimulated cells; lanes 2: estradiol treated cells; lanes 3: cells treated with estradiol in the presence of LY294,002 (LY); lane 4: cells treated with estradiol in the presence of SH3-binder peptide (SH3); lane 5: cells treated with estradiol in the presence of the shuffled sequence of peptide SEQ.ID NO.1 (Ss).
To test the effect of SH3 binder peptide (SEQ.ID NO.1) on estrogen stimulated Cyclin D1 expression, this peptide is added to LNCaP and MCF-7 cells stimulated with 10 nM 17β-estradiol (FIG. 3B). MCF-7 and LNCaP cells are routinely grown as reported above. Cells are then kept for at least 4 days in red phenol-free medium supplemented as described above and added with dextran-coated charcoal treated fetal calf serum to minimize steroid contamination.

[3] = biological target: T1, ER association with Src (Homo sapiens, UniProt P12931); assay: Estrogen-stimulated ER/AR association with Src, anti-Src co-immunoprecipitation in MCF-7 cells; assay type: cell-based
T1 construct: Cell lysates are submitted to immunoprecipitation using mouse monoclonal anti-Src antibodies; endogenous in cells; host or cells: MCF-7
Method: Human breast cancer MCF-7 cells were left unstimulated or stimulated for 2 min with 10 nM 17β estradiol alone or in the presence of a 1000 fold excess of ICI 182,780 or 1 nM of the SH3 binder peptide or the shuffled sequence of peptide SEQ.ID NO.1 (SEQ.ID NO.7). Cell lysates were incubated with anti-Src antibodies, immunoprecipitated proteins were resolved on SDS-PAGE and transferred onto nitrocellulose filters. Filters were then blotted with either anti-Src or anti-human AR antibodies to detect AR associated with Src.
Cells are suspended in 1 ml of lysis buffer: 50 mM Tris-HCl, pH 7.40, containing 5 mM MgCl2, 150 mM NaCl, 0.5% Triton X-100 and left under gentle shaking for 2 min, at 4° C. Suspensions are then centrifuged at about 800 g for 30 min and supernatant collected and used for immunoprecipitation.
To address this point mammary cancer derived MCF-7 cells are grown in 5% CO2 in air in DMEM medium (GIBCO) supplemented with phenol-red, 2 mM L-glutamine (GIBCO), penicillin (100 U/ml), gentamicin (50 μl/ml), hydrocortisone (3.75 ng/ml) insulin (0.2 U.I./ml) and 5% fetal calf serum. The cells are then kept in DMEM without phenol red and supplemented with glutamine, penicillin, gentamicin and insulin as above and containing 5% charcoal-stripped fetal calf serum for additional 4 days. […]

[4] = system: androgen receptor; assay: ARE luciferase reporter gene transcription in LNCaP cells; assay type: cell-based, human
Method: LNCaP cells were transfected with a reporter gene encoding the luciferase gene under the control of an androgen responsive element (ARE 3416) (Castoria et al., 2003). Six hrs after transfection, cells were kept for further 24 hrs in the absence or in presence of 10 nM R1881 alone or with a 1000 fold excess of Casodex or with 1 nM SH3 binder peptide (SEQ.ID NO.1) or 1 nM shuffled sequence of peptide SEQ.ID NO.1 (SEQ.ID. NO.7). Luciferase activity was then assayed in cell lysates. Bar1: unstimulated cells; Bar 2: R1881 treated cells; Bar 3: cells treated with R1881 in the presence of Casodex (Cdx); Bar 4: cells treated with R1881 in the presence of the SH3 binder peptide (SH3); Bar 5: cells treated with R1881 in the presence of the shuffled sequence of peptide SEQ.ID NO.1 (Ss).
LNCaP cells, kept in 5% CO2 in air in RPMI 1640 medium (GIBCO) supplemented with phenol-red, 2 mM L-glutamine (GIBCO), penicillin (100 U/ml), gentamicin (50 μl/ml), insulin and 10% fetal calf serum, are transfected with a reporter gene engineered in a pSG5 expression vector with the luciferase gene under the control of an androgen responsive element (ARE3416) (Verrijdt et al., 2000). […]

[5] = system: MCF-7 cells; assay: BrdU incorporation (DNA synthesis), estradiol-stimulated MCF-7 cells; assay type: cell-based, human; conditions: 24 hrs
Method: (§1) DNA synthesis is assayed in single cells by a 6 h pulse with 100 μM (final concentration) BrdU (Boeheringer). Cells on coverslips are fixed, and incubated with diluted (1:1 in PBS) fluorescein-conjugated mouse anti-BrdU mAbs (clone BMC9318 from Boheringer Mannheim Co., IN), then washed three times with PBS. […] All coverslips are washed three times in PBS, inverted and mounted in Moviol (Calbiochem, CA) on glass slides. Slides are analyzed using an Axiophot fluorescent microscope (Zeiss).

[6] = system: LNCaP cells; assay: BrdU incorporation (DNA synthesis), EGF-stimulated LNCaP cells; assay type: cell-based, human; conditions: 24 hrs
Method: FIG. 1C. DNA synthesis inhibition of EGF-stimulated human prostate cancer cells by SH3 binder peptide modeled from AR (SEQ. ID NO.1). LNCaP cells were grown in phenol red-free medium added with charcoal-treated serum as previously described and treated for 24 hrs with 100 ng/ml EGF alone or in the presence of a 10 μM of the anti-estrogen ICI 182,780 or 1 nM of the AR-derived (SH3-binder) peptide (SEQ.ID NO.1) or the shuffled sequence of peptide SEQ.ID NO.1 (SEQ.ID NO.7). At the end of the growth factor treatment BrdU incorporation in the cells untreated (control) or treated with EGF alone (EGF) or in the presence of ICI 182,780 (ICI) or the SH3-binder (SH3) or the shuffled sequence of peptide SEQ.ID NO.1 (Ss) was assayed. Data are reported as percentage of cells incorporating BrdU.
(§2) The peptide SEQ.ID NO.1 is finally assayed for its ability to reduce or inhibit EGF induced DNA synthesis in human prostate cancer LNCaP (1C) and MCF-7 (1D) cells. The LNCaP and MCF-7 cells are cultured as described above, then seeded onto coverslips. Cells are then stimulated with 100 ng/ml of highly purified EGF (Boheringer, Calif.) in the absence or in presence of 1 nM peptide SEQ.ID NO.1.
as §1

[7] = system: MCF-7 cells; assay: BrdU incorporation (DNA synthesis), EGF-stimulated MCF-7 cells; assay type: cell-based, human; conditions: 24 hrs
Method: FIG. 1D. […] MCF-7 cells were grown in phenol red-free medium added with charcoal-treated serum as previously described and treated for 24 hrs with 100 ng/ml EGF alone or in the presence of a 10 μM of the anti-estrogen ICI 182,780 or 1 nM of the AR-derived (SH3-binder) peptide or the shuffled sequence of peptide SEQ ID NO.1 (SEQ.ID. NO.7). At the end of the growth factor treatment, BrdU incorporation in the cells untreated (control) or treated with EGF alone (EGF) or in the presence of ICI 182,780 (ICI) or SH3-binder (SH3) or shuffled sequence of peptide SEQ.ID NO.1 (Ss) was assayed. Data are reported as percentage of cells incorporating BrdU.
as §2, §1

[8] = system: LNCaP cells; assay: BrdU incorporation (DNA synthesis), R1881-stimulated LNCaP cells; assay type: cell-based, human; conditions: for residual BrdU incorporation: R1881 alone 54%, untreated 20%
[9] = biological target: T2, AR association with Src (Homo sapiens, UniProt P12931); assay: Androgen-stimulated AR association with Src, anti-Src co-immunoprecipitation in LNCaP cells; assay type: cell-based
T2 construct: Cell lysates are submitted to immuno-precipitation using mouse monoclonal anti-Src antibodies; endogenous in cells; host or cells: LNCaP
Method: Human prostate cancer LNCaP cells were left unstimulated or stimulated for 2 min with 10 nM R1881 alone or in the presence of 1000-fold excess of Casodex or 1 nM of the SH3-binder peptide or the shuffled sequence of peptide SEQ.ID NO.1 (SEQ.ID NO.7). Cell lysates were incubated with anti-Src antibodies, and the immunoprecipitated proteins resolved on SDS-PAGE and transferred onto nitrocellulose filters. Filters were then blotted with either anti-Src or anti-human AR antibodies to detect AR associated with Src. […] Lane 1: unstimulated cells; lane 2: R1881 treated cells; lane 3: cells treated with R1881 in the presence of Casodex (Cdx); lane 4: cells treated with R1881 in the presence of the SH3 binder peptide (SH3, SEQ.ID NO.1); lane 5: cells treated with R1881 in the presence of the shuffled sequence of peptide SEQ.ID NO.1 (Ss, SEQ.ID NO.7).
Cells are then stimulated with 10 nM R1881 alone or in the presence of a 1000-fold excess of the anti-androgen Casodex or 1 nM of the SEQ.ID NO.1 peptide or 1 nM of the shuffled sequence of peptide SEQ.ID NO.1 (SEQ.ID NO.7) for 2 min, and lysed. Cell lysates are submitted to immuno-precipitation using mouse monoclonal anti-Src antibodies (Clone 327, Oncogene Science, Manhasset, N.Y.). The immuno-precipitated proteins are resolved on a 12% SDS-polyacrylammide gel and thereafter transferred onto nitrocellulose filters. […]

[10] = system: LNCaP cell xenografts; assay: LNCaP cell xenografts in nude male mice; conditions: peptide intraperitoneally on alternate days, LNCaP xenograft mice; data not shown
[11] = system: MCF-7 cell xenografts; assay: MCF-7 cell xenografts in nude male mice; conditions: peptide intraperitoneally on alternate days, MCF-7 xenograft mice; data not shown
[12] = 1 nM peptide with 10 nM 17β estradiol
[13] = 1 nM peptide with 10 nM R1881, 24 hrs

CC(C)(C)n1nc(-c2ccc(Cl)cc2)c2c(N)ncnc21 [PP2]
hormone stimulated cyclin expression ([1]; with 10 nM R1881, concentration not given, data not shown): abolishes

O=c1cc(N2CCOCC2)oc2c(-c3ccccc3)cccc12 [LY 294,002]
hormone stimulated cyclin expression ([2]; 5 μM with 10 nM 17β estradiol): abolishes
hormone stimulated cyclin expression ([1]; 5 μM with 10 nM R1881, MCF-7 and LNCaP): abolishes

Ac-His-Pro-Lys-Pro-Ala-Arg-Ile-Pro-His-Pro-NH2 (Ac-HPKPARIPHP-NH2) [SEQ.ID NO.7]
hormone stimulated receptor-Src association (co-immunoprecipitation by anti-Src antibodies) [3, 12]: only slightly affected
transcriptional activity of AR (luciferase reporter) [4, 13]: neither the SH3 peptide nor the shuffled sequence of peptide SEQ. ID NO.1 affect
effect on estrogen-induced DNA synthesis [5, 12]: not significant effect
BrdU incorporation (residual) ([6]; 1 nM peptide with 100 ng/ml EGF, EGF alone 21%, untreated 8%): 15%
BrdU incorporation (residual) ([7]; 1 nM peptide with 100 ng/ml EGF, EGF alone 36%, untreated 6%): 48%
residual BrdU incorporation [8, 13]: 48%
hormone stimulated Src-AR association (AR co-immunoprecipitated by anti-Src antibodies) ([9]; 1 nM peptide with 10 nM R1881, 2 min): only slightly affected
Cyclin D induction by estrogen ([2]; 1 nM peptide with 10 nM 17β estradiol, 6 hrs): a little effect
Cyclin D induction by R1881 ([1]; 1 nM peptide with 10 nM R1881, 6 hrs, MCF-7 and LNCaP): only partially reduces

C[C@]1(O)CC[C@H]2[C@@H]3CCC4=CC(=O)CCC4=C3C=C[C@@]21C [R1881]
BrdU incorporation rate ([8]; 10 nM R1881 alone, 24 hrs, untreated cells 20%, averaged from six assays): 54%

EGF: highly purified EGF, growth factor used as stimulus
BrdU incorporation ([6]; 100 ng/ml EGF alone, untreated cells 8%): 21%
BrdU incorporation ([7]; 100 ng/ml EGF alone, untreated cells 6%): 36%

CC[C@H](C)[C@H](NC(=O)[C@H](CCCNC(=N)N)NC(=O)[C@H](C)NC(=O)[C@H](Cc1c[nH]cn1)NC(=O)[C@@H]1CCCN1C(=O)[C@H](Cc1c[nH]cn1)NC(=O)[C@@H]1CCCN1C(=O)[C@@H]1CCCN1C(=O)[C@@H]1CCCN1C(C)=O)C(=O)N[C@@H](CCCCN)C(N)=O [SEQ.ID NO.1, Ac-Pro-Pro-Pro-His-Pro-His-Ala-Arg-Ile-Lys-NH2] (Ac-PPPHPHARIK-NH2)
weight of mice vs vehicle [10]: No difference
weight of mice vs vehicle [11]: No difference

CC(O)(CS(=O)(=O)c1ccc(F)cc1)C(=O)Nc1ccc(C#N)c(C(F)(F)F)c1 (stereo not shown) [Casodex, biclutamide]
androgen induced transcription of reporter gene ([4]; 1000 fold excess with 10 nM R1881, 24 hrs): completely inhibits
residual BrdU incorporation ([8]; 1000-fold excess with 10 nM R1881, 24 hrs): 21%
hormone stimulated Src-AR association (AR co-immunoprecipitated by anti-Src antibodies) ([9]; 1000-fold excess with 10 nM R1881, 2 min): abolished

C[C@]12CC[C@@H]3c4ccc(O)cc4CC[C@H]3[C@@H]1CC[C@@H]2O [17β estradiol]
BrdU incorporation rate ([5]; 10 nM 17β estradiol alone, untreated cells 8%, averaged from six assays): 61%

C[C@]12CC[C@@H]3c4ccc(O)cc4C[C@@H](CCCCCCCCC[S+]([O-])CCCC(F)(F)C(F)(F)F)[C@H]3[C@@H]1CC[C@@H]2O (stereo partly shown) [ICI 182,780]
association between ER and Src (co-immunoprecipitation by anti-Src antibodies) ([3]; 1000-fold excess with 10 nM 17β estradiol): abolished
residual BrdU incorporation ([5]; 1000-fold excess with 10 nM 17β estradiol, E2 alone 61%, untreated 8%): 7%
residual BrdU incorporation ([6]; 10 μM with 100 ng/ml EGF, EGF alone 21%, untreated 8%): 7%
residual BrdU incorporation ([7]; 10 μM with 100 ng/ml EGF, EGF alone 36%, untreated 6%): 9%
